Consider one compound from article PMC9423655, “Huntington’s disease phenotypes are improved via mTORC1 modulation by small molecule therapy” (PLoS ONE, 2022).

The test system of series [1] is N171-82Q HD mice. The experiment in a line: Chronic 6-week treatment: weight, forelimb grip strength, accelerating rotarod. To be noted: N171-82Q mice. It is filed as in vivo. The procedure:
The initial trial consisted in one week of oral dosing in 12 weeks old N171-82Q males. The chronic 6 weeks treatment (Veh n = 15, NV-5297 n = 14) took place from 6 to 12 weeks of age. The cardiac stress took place in animals from 10 to 12 weeks of age (Veh-Sal n = 9, NV-Sal n = 10, Veh-Iso n = 16, NV-Iso n = 11).
The accelerated rotarod (model 47600; Ugo Basile, Comerio, Italy) test was carried out as previously described. Mice were tested at 5 (baseline) and 12 weeks of age. Briefly, mice were habituated to the test room for an hour. On the first day, mice were trained on the rotarod for 5 minutes at 4 rpm. Mice were then tested in three trials per day (with at least 30 minutes of rest between trials) for four consecutive days. For each trial, the rotarod accelerated from 4 to 40 rpm over 4 minutes with constant speed at 40 rpm for an additional minute. Trials were stopped at 300 seconds. Latency to fall (or two consecutive rotations without running) was recorded for every trial. For grip strength, mice were tested at 5 (baseline), 9 and 12 weeks of age. Mice were habituated to the test room for 1 hour. The mouse held a pull bar with both paws and are then pulled horizontally until they let go of the pull bar. Forelimb grip strength at the peak tension was measured five times per mice (Columbus Instrument). There were at least 30 minutes of rest between trials. The grip strength is calculated as the average of the four highest grip strength recorded.
Background: Falling from the rotarod earlier than controls is read as motor impairment.

The subject of series [2] is SesnTKO HEK293T cells. The experiment in a line: mTORC1 activation (p70S6K1) in HEK293T cells null for all three Sestrin isoforms. It is filed as cell-based. To be noted: leucine-starved 50 minutes, treatment 10 minutes. The procedure:
All cell lines were cultured in DMEM (Corning, #MT10013CV) supplemented with 10% heat-inactivated FBS (Gibco, #16140–071). All cell lines were maintained at 37°C and 5% CO2. For amino acid starvation, cells were rinsed once with and incubated Amino acid-free RPMI (US Biologicals, #R8999-04A) supplemented with 10% dialyzed FBS (Gibco, #26400044) for 50 min followed by treatment with NV-5297, leucine, or vehicle for 10 minutes. For leucine starvation, cells were rinsed once with and incubated in leucine-free DMEM (AthenaES, #0420) supplemented with 10% dialyzed FBS (Gibco, #26400044) for 50 minuted followed by treatment with NV-5297, leucine, or vehicle for 10 minutes.
To ascertain if Sestrins and the GATOR pathway are required for NV-5297 activity, we tested mTORC1 activation in cells null for either all three Sestrin isoforms [SesnTKO] or for the GATOR1 component Npr13 [Npr13KO] [44]. […]
(A) Activation of the mTORC1 pathway by NV-5297. […] Representative immunoblots of ^T389pS6K1 and quantification of the normalized level of ^T389pS6K1 from 8 independent experiments (F) show TORC1 activity in unedited HEK-293T cells, HEK-293T cells deficient for Sestrin 1 (Sesn1), 2 (Sesn2) and 3 (Sesn3) (D) or HEK-293T cells deficient for the GATOR1 component Nprl3 (E) after 50 minutes leucine starvation followed by the addition of vehicle, NV-5297 or leucine for 10 minutes. […]

Series [3] relates to mTORC1 pathway (pS6). Description: Isoprenaline cardiac stress: pS6 immunoblot of striatum and heart. The class given is in vivo. To be noted: N171-82Q mice under isoprenaline cardiac stress, 1 hour after oral dosing 160 mg/kg. The procedure:
Specific regions of the brain and heart were homogenized using a Next Advance Bullet Blender Storm in Lysis Buffer (Cell lysis buffer: 1% Triton X-100, 50 mM HEPES pH 7.4, 100 mM sodium chloride, 2 mM EDTA, 10 mM Beta-glycerophosphate, 10 mM Sodium pyrophosphate, and 1 protease inhibitor) at 4°C. Lysates were cleared by centrifugation at 13,200 rpm at 4°C for 10 minutes. Equal amounts of total protein from each sample were denatured and, resolved by SDS-PAGE. Membranes were imaged using the LI-COR imaging system. Proteins levels are normalized to tubulin, actin or GAPDH levels and further normalized to vehicle treated mice for each tissue.
Fig 8 mTORC1 pathway activation following NV-5297 dosing and cardiac stress in the striatum but not heart. Representative immunoblot (left panels) of phosphorylated S6 (^S240/244pS6) and quantification of normalized level (right panels) for homogenized heart (A) and striatum (B) isolated 1 hour after oral dosing with NV-5297 (160 mg/kg) with a saline (n = 10) or isoprenaline (n = 6) implant or treated with vehicle and an isoprenaline implant (n = 6) normalized to loading control levels and further normalized to vehicle treated mice with a saline implant (n = 9). Data are presented as mean ± SEM. *P ≤ 0.05, **P ≤ 0.01, ***P ≤ 0.001 (Mixed-effects model with Sidak’s multiple comparisons test).
For orientation: Immunoblotting shows a protein as a band on a membrane.

[4] abbreviates: oral 160 mg/kg daily for 6 weeks.

Consider `CC(C)(C[C@H](N)C(=O)O)C(F)(F)F` [NV-5297, (S)-2-amino-5,5,5-trifluoro-4,4-dimethylpentanoic acid], for which, in series [1] (12 weeks of age, oral 160 mg/kg daily for 6 weeks), the “accelerating rotarod motor performance over 4-day trial” value is “improved rotarod motor performance”. Besides, the “adverse effects to the treatment” value in series [1] (NV-5297 treatment, response to reviewers) was “No mice had explicit adverse effects”. In addition, in series [1] (setting [4]), the forelimb grip strength entry was “did not impact” and the weight loss entry was “did not impact”. In series [2], the p70S6K1 levels result is “remained unchanged”. Moreover, in series [3], the “pS6/S6 ratio in heart” value is on record as “strong trend toward increased ratios” and the “pS6/S6 ratio in striatum” value is reported as “increased pS6/S6 ratio”.
